Results published in paper PMC10879502, “Linking ATP and allosteric sites to achieve superadditive binding with bivalent EGFR kinase inhibitors” (Communications Chemistry, 2024).
“And” between values parts separate entries of the source, which are not always exact repeats. Equal entries are not always repeated. Where two headings read alike, the source gives them in different places.

Legend:
[1] = tested on: Ba/F3 cells, LR/TM/CS EGFR; conditions: Ba/F3 ref 4 Wittlinger and Heppner; cited from earlier work
[2] = tested on: Ba/F3 cells, L858R/T790M EGFR; conditions: Ba/F3 ref 4 Wittlinger and Heppner; read-out: EGFR EC50, LR/TM; cited from earlier work
[3] = tested on: Ba/F3 cells, L858R EGFR; conditions: Ba/F3 ref 4 Wittlinger and Heppner; read-out: EGFR EC50, LR; cited from earlier work
[4] = tested on: Ba/F3 cells, wildtype EGFR; conditions: Ba/F3 ref 4 Wittlinger and Heppner; read-out: EGFR EC50, wt; cited from earlier work
[5] = target: T1, WT EGFR kinase domain (Homo sapiens, UniProt P00533); assay: HTRF KinEASE-TK kinase activity assay; format: biochemical
T1 construct: The EGFR kinase domain (residues 696–1022) was cloned into pTriEx; 6xHis (N, cleaved yes); GST (N, cleaved yes); made in house; host or cells: SF9 insect cells, baculovirus

[6] = target: T2, EGFR L858R (LR) kinase domain (Homo sapiens, UniProt P00533, L858R); assay: HTRF KinEASE-TK kinase activity assay; format: biochemical
T2 construct: The EGFR kinase domain (residues 696–1022) was cloned into pTriEx; 6xHis (N, cleaved yes); GST (N, cleaved yes); made in house; host or cells: SF9 insect cells, baculovirus

[7] = target: T3, EGFR L858R/T790M/C797S (LRTMCS) kinase domain (Homo sapiens, UniProt P00533, C797S/L858R/T790M); assay: HTRF KinEASE-TK kinase activity assay; format: biochemical
T3 construct: The EGFR kinase domain (residues 696–1022) was cloned into pTriEx; 6xHis (N, cleaved yes); GST (N, cleaved yes); made in house; host or cells: SF9 insect cells, baculovirus

[8] = tested on: EGFR phosphorylation (pY1068) in H1975 cells; assay: Western blot; format: cell-based, human; conditions: H1975, 6 h
Procedure: H1975, H3255, H3255GR and HCC827 lung adenocarcinoma cells (obtained from Dr. Pasi Jänne in Dana-Farber Cancer Institute, 2022) were cultured in RPMI 1640 media (Corning, 1004-CV) supplemented with 10% FBS (Tissue Culture Biologicals, 35-010-CV) and 1% penicillin-streptomycin (P/S, Corning, 30-002-CI). All cell lines were tested negative for Mycoplasma using Myco-Sniff-Rapid™ Mycoplasma Luciferase Detection Kit Plus PCR Primer Set (MP biomedicals, 0930504-CF) and were passaged and/or used for no longer than 4 weeks for all experiments H1975 and HCC-827 cells were seeded in 6-well plates with 400,000 cells per well and incubated overnight. H3255 and H3255GR cells were seeded in 12-well plates with 200,000 cells per well and were grown to confluency after 48 h. Culture medium was removed, cells washed with PBS, and lysed with lysis buffer containing 5 M NaCl, 1 M TRIS pH 8.0, 10% SDS, 10% Triton X-100 and a tablet of protease and phosphatase inhibitor. Protein lysate concentration was analyzed using Pierce BCA kit (ThermoFisher, 23225). Protein samples (10 µg) were resolved on hand-cast Criterion Tris-HCl protein gels. Primary antibodies used; phospho-EGFR (Tyr1068; #2234, 1:1,000), EGFR (#4267; 1:1,000), phospho-AKT (Ser473; #4060, 1:1,000), AKT (#9272, 1:1,000), phospho-ERK1/2 (Thr202/Tyr204; #4370, 1:1,000), and ERK1/2 (#4695, 1:1,000) antibodies; were purchased from Cell Signaling Technology. Secondary Goat anti-rabbit IgG starbright blue 700 (Biorad, 64484700) and Anti-tubulin hFAB Rhodamine Tubulin (Bio-Rad, 64512248). Western blots were visualized with the ChemiDoc MP imager (Bio-Rad) utilizing the Image Lab Touch Software (version 2.4.0.03). All Western blot images are representatives of at least 3 independent replicate experiments.

[9] = target: T4, EGFR L858R/T790M (LRTM) kinase domain (Homo sapiens, UniProt P00533, L858R/T790M); assay: HTRF KinEASE-TK kinase activity assay; format: biochemical; conditions: for linking coefficients: limits estimated from LRTM IC50 values; for Linking coefficient E: LRTM IC50, upper limit; for activity: LRTM, read-out: percent inhibition
T4 construct: The EGFR kinase domain (residues 696–1022) was cloned into pTriEx; 6xHis (N, cleaved yes); GST (N, cleaved yes); made in house; host or cells: SF9 insect cells, baculovirus

[10] = enzyme 10 nM, ATP 100 µM, read-out: Biochemical EGFR IC50, WT
[11] = enzyme 0.1 nM, ATP 100 µM, read-out: Biochemical EGFR IC50, LR
[12] = enzyme 0.02 nM, ATP 100 µM, read-out: Biochemical EGFR IC50, LRTMCS
[13] = Table S1, ATP 100 µM, read-out: IC50, LRTM
[14] = enzyme 0.02 nM, ATP 100 µM, read-out: Biochemical EGFR IC50, LRTM

C=CC(=O)Nc1cc(Nc2nccc(-c3cn(C)c4ccccc34)n2)c(OC)cc1N(C)CCN(C)C [AZD9291]
EC50 [1]: 1200 ± 130 nM | EC50 [2]: 8 nM | EC50 [3]: 3.3 ± 0.6 nM | EC50 [4]: 110 ± 40 nM

CSc1nc(-c2cccc(CN3C(=O)c4ccccc4Nc4ccc(F)cc43)c2)c(-c2ccnc(NC(C)=O)c2)[nH]1 [Compound 1]
IC50 [5, 10]: > 10000 nM | IC50 ([5]; read-out: IC50, WT): ≥ 1000 nM | activity at 3.181 pM ([6]; LR, [Inhibitor] 0.00318089 nM, read-out: percent inhibition): 103% | activity at 7.783 pM ([6]; LR, [Inhibitor] 0.00778314 nM, read-out: percent inhibition): 94.6% | activity at 19.04 pM ([6]; LR, [Inhibitor] 0.0190441 nM, read-out: percent inhibition): 99.4% | activity at 46.6 pM ([6]; LR, [Inhibitor] 0.0465979 nM, read-out: percent inhibition): 97.2% | activity at 0.000114018 µM ([6]; LR, [Inhibitor] 0.114018 nM, read-out: percent inhibition): 94.5% | activity at 0.000278983 µM ([6]; LR, [Inhibitor] 0.278983 nM, read-out: percent inhibition): 83% | activity at 0.000682626 µM ([6]; LR, [Inhibitor] 0.682626 nM, read-out: percent inhibition): 67.9% | activity at 0.00167028 µM ([6]; LR, [Inhibitor] 1.67028 nM, read-out: percent inhibition): 39.3% | activity at 0.0040869 µM ([6]; LR, [Inhibitor] 4.0869 nM, read-out: percent inhibition): 19.2% | activity at 0.01 µM ([6]; LR, [Inhibitor] 10 nM, read-out: percent inhibition): 9.7% | activity at 1.3 pM ([6]; LR, [Inhibitor] […], read-out: percent inhibition): 102% | IC50 [6, 11]: 1300 ± 100 nM | IC50 ([6]; read-out: IC50, LR): ≥ 1000 nM | activity at 3.181 pM ([7]; LRTMCS, [Inhibitor] 0.00318089 nM, read-out: percent inhibition): 103% | activity at 7.783 pM ([7]; LRTMCS, [Inhibitor] 0.00778314 nM, read-out: percent inhibition): 94.6% | activity at 19.04 pM ([7]; LRTMCS, [Inhibitor] 0.0190441 nM, read-out: percent inhibition): 99.4% | activity at 46.6 pM ([7]; LRTMCS, [Inhibitor] 0.0465979 nM, read-out: percent inhibition): 97.2% | activity at 0.000114018 µM ([7]; LRTMCS, [Inhibitor] 0.114018 nM, read-out: percent inhibition): 94.5% | activity at 0.000278983 µM ([7]; LRTMCS, [Inhibitor] 0.278983 nM, read-out: percent inhibition): 83% | activity at 0.000682626 µM ([7]; LRTMCS, [Inhibitor] 0.682626 nM, read-out: percent inhibition): 67.9% | activity at 0.00167028 µM ([7]; LRTMCS, [Inhibitor] 1.67028 nM, read-out: percent inhibition): 39.3% | activity at 0.0040869 µM ([7]; LRTMCS, [Inhibitor] 4.0869 nM, read-out: percent inhibition): 19.2% | activity at 0.01 µM ([7]; LRTMCS, [Inhibitor] 10 nM, read-out: percent inhibition): 9.7% | activity at 1.3 pM ([7]; LRTMCS, [Inhibitor] […], read-out: percent inhibition): 102% | IC50 [7, 12]: > 10000 nM | IC50 ([7]; read-out: IC50, LRTMCS): ≥ 1000 nM | suppression of EGFR phosphorylation [8]: limited ability to suppress phosphorylation | IC50 [9, 13]: ≥ 1000 nM | IC50 [9, 14]: > 10000 nM | linking coefficients [9]: > 2e+07 M⁻¹

CCc1nc(-c2cccc(NC(=O)c3cccc4c3NC(=O)c3ccccc3N4)c2)c(-c2ccnc(NC(C)=O)c2)[nH]1 [Compound 3]
IC50 [5, 10]: < 10 nM | activity ([6]; LR, [Inhibitor] 1.3e-5 nM, read-out: percent inhibition): 95.4% and 96.9% and 90.5% | activity ([6]; LR, [Inhibitor] 3.18e-5 nM, read-out: percent inhibition): 86.7% and 90.8% and 88.7% | activity ([6]; LR, [Inhibitor] 7.78e-5 nM, read-out: percent inhibition): 65.8% and 67.4% and 61.5% | activity at 190.4 fM ([6]; LR, [Inhibitor] 0.000190441 nM, read-out: percent inhibition): 34.4% | activity at 466 fM ([6]; LR, [Inhibitor] 0.000465979 nM, read-out: percent inhibition): 15.1% | activity at 1.14 pM ([6]; LR, [Inhibitor] 0.00114018 nM, read-out: percent inhibition): 9.97% | activity at 2.79 pM ([6]; LR, [Inhibitor] 0.00278983 nM, read-out: percent inhibition): 5.05% | activity at 6.826 pM ([6]; LR, [Inhibitor] 0.00682626 nM, read-out: percent inhibition): 3.24% | activity at 16.7 pM ([6]; LR, [Inhibitor] 0.0167028 nM, read-out: percent inhibition): 1.45% | IC50 [6, 11]: 1.2 ± 0.09 nM | activity ([7]; LRTMCS, [Inhibitor] 1.3e-5 nM, read-out: percent inhibition): 95.4% and 96.9% and 90.5% | activity ([7]; LRTMCS, [Inhibitor] 3.18e-5 nM, read-out: percent inhibition): 86.7% and 90.8% and 88.7% | activity ([7]; LRTMCS, [Inhibitor] 7.78e-5 nM, read-out: percent inhibition): 65.8% and 67.4% and 61.5% | activity at 190.4 fM ([7]; LRTMCS, [Inhibitor] 0.000190441 nM, read-out: percent inhibition): 34.4% | activity at 466 fM ([7]; LRTMCS, [Inhibitor] 0.000465979 nM, read-out: percent inhibition): 15.1% | activity at 1.14 pM ([7]; LRTMCS, [Inhibitor] 0.00114018 nM, read-out: percent inhibition): 9.97% | activity at 2.79 pM ([7]; LRTMCS, [Inhibitor] 0.00278983 nM, read-out: percent inhibition): 5.05% | activity at 6.826 pM ([7]; LRTMCS, [Inhibitor] 0.00682626 nM, read-out: percent inhibition): 3.24% | activity at 16.7 pM ([7]; LRTMCS, [Inhibitor] 0.0167028 nM, read-out: percent inhibition): 1.45% | IC50 [7, 12]: 0.063 ± 0.005 nM | IC50 ([7]; read-out: IC50, LRTMCS): 0.051 to 0.064 nM | suppression of EGFR phosphorylation [8]: also effective in H1975 cells, however to a lesser extent than 4 | Linking coefficient E ([9]; ATP fragment 5, allosteric fragment 10): < 0.88 M⁻¹ | Linking coefficient E ([9]; ATP fragment 6, allosteric fragment 10): < 0. 51 M-1 | activity ([9]; [Inhibitor] 1.3e-5 nM): 80.3% and 89% and 81.1% | activity ([9]; [Inhibitor] 3.18e-5 nM): 69.3% and 75.7% and 76.3% | activity ([9]; [Inhibitor] 7.78e-5 nM): 34.1% and 36.2% and 33.7% | activity ([9]; [Inhibitor] 0.000190441 nM, 190.4 fM): 16.3% and 13.5% | activity ([9]; [Inhibitor] 0.000465979 nM, 466 fM): 5.63% and 5.16% | activity ([9]; [Inhibitor] 0.00114018 nM, 1.14 pM): 4.05% and 3.39% | activity ([9]; [Inhibitor] 0.00278983 nM, 2.79 pM): 3.12% and 3.28% | activity ([9]; [Inhibitor] 0.00682626 nM, 6.826 pM): 2.4% and 2.45% | IC50 ([9]; Table S1, read-out: IC50, LRTM): 0.051 to 0.064 nM and 0.051 to 0.059 nM | IC50 [9, 14]: 0.051 ± 0.005 nM | linking coefficients [9]: 0.5 to 1.0 M⁻¹

CSc1nc(-c2ccc(F)cc2)c(-c2ccnc(NC(C)=O)c2)[nH]1 [Compound 5, reference compound]
IC50 [7, 12]: 6000 ± 500 nM | IC50 ([7]; read-out: IC50, LRTMCS): 6000 to 10000 nM | IC50 [9, 13]: 6000 to 10000 nM and ≥ 6000 nM | IC50 [9, 14]: 5800 ± 300 nM

C=CC(=O)Nc1ccc(OC)c(Nc2cc(-c3[nH]c(SC)nc3-c3ccc(F)cc3)ccn2)c1 [Compound 7]
EC50 [1]: 1600 ± 200 nM | EC50 [3]: < 1 nM | EC50 [4]: 20 ± 6 nM

O=C1c2cc(F)ccc2Nc2ccccc2N1Cc1ccccc1 [Compound 9, reference compound]
IC50 [5, 10]: > 1000 nM | IC50 [7, 12]: 39 to 59 nM | IC50 [9, 14]: 52 nM

O=C1Nc2c(cccc2C(=O)Nc2ccccc2)Nc2ccccc21 [Compound 10]
IC50, LRTM ([9]; Table S1, ATP 100 µM): virtually inactive | IC50 [9, 13]: ≥ 10000 nM

O=C1Nc2c(cccc2C(=O)Nc2nccs2)Nc2ccccc21 [Compound 11]
IC50 [9, 13]: ≥ 10000 nM

COc1ccc2c(c1)C(=O)Nc1c(cccc1C(=O)Nc1nccs1)N2 [Compound 12]
IC50 [9, 13]: ≥ 10000 nM
